According to ChEMBL document CHEMBL1201862, “PubChem BioAssay data set” (2004):
pIC50: −log10 of the molar value. Active and inactive are the calls of the source.

Experiments:
[1] = molecular target: Peroxisome proliferator-activated receptor gamma/Nuclear receptor corepressor 2 (Homo sapiens, UniProt P37231+Q9Y618); format: functional
[2] = molecular target: Photoreceptor-specific nuclear receptor (Homo sapiens, UniProt Q9Y5X4); format: functional;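 note: potency for compounds that break the NR2E3 corepressor complex and count as activators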
[3] = molecular target: Peroxisome proliferator-activated receptor gamma/Nuclear receptor coactivator 2 (Homo sapiens, UniProt P37231); assay: (§1) TR-FRET dose response biochemical High Throughput Screening assay for agonists of the steroid receptor coactivator 2 (SRC-2) recruitment by the peroxisome proliferator-activated receptor gamma (PPAR gamma): non-selective agonists. [Related pubchem assays: 1297, 1032 ]; format: functional
Sequence of Peroxisome proliferator-activated receptor gamma/Nuclear receptor coactivator 2 (P37231 whole entry): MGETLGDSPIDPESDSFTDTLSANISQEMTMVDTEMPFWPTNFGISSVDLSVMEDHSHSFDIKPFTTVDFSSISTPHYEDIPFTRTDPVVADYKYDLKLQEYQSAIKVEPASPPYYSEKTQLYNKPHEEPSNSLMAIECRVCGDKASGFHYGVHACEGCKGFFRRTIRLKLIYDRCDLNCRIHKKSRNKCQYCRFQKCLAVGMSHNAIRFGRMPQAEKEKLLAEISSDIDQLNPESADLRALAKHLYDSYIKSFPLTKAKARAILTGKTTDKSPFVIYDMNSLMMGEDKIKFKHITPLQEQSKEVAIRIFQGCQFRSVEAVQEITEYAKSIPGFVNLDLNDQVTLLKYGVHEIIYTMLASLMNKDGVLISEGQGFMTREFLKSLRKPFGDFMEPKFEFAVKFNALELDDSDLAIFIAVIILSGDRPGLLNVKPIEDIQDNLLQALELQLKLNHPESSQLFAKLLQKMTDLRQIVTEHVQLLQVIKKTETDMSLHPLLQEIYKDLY
Sequence of Peroxisome proliferator-activated receptor gamma/Nuclear receptor coactivator 2 (Q15596 whole entry, further chain): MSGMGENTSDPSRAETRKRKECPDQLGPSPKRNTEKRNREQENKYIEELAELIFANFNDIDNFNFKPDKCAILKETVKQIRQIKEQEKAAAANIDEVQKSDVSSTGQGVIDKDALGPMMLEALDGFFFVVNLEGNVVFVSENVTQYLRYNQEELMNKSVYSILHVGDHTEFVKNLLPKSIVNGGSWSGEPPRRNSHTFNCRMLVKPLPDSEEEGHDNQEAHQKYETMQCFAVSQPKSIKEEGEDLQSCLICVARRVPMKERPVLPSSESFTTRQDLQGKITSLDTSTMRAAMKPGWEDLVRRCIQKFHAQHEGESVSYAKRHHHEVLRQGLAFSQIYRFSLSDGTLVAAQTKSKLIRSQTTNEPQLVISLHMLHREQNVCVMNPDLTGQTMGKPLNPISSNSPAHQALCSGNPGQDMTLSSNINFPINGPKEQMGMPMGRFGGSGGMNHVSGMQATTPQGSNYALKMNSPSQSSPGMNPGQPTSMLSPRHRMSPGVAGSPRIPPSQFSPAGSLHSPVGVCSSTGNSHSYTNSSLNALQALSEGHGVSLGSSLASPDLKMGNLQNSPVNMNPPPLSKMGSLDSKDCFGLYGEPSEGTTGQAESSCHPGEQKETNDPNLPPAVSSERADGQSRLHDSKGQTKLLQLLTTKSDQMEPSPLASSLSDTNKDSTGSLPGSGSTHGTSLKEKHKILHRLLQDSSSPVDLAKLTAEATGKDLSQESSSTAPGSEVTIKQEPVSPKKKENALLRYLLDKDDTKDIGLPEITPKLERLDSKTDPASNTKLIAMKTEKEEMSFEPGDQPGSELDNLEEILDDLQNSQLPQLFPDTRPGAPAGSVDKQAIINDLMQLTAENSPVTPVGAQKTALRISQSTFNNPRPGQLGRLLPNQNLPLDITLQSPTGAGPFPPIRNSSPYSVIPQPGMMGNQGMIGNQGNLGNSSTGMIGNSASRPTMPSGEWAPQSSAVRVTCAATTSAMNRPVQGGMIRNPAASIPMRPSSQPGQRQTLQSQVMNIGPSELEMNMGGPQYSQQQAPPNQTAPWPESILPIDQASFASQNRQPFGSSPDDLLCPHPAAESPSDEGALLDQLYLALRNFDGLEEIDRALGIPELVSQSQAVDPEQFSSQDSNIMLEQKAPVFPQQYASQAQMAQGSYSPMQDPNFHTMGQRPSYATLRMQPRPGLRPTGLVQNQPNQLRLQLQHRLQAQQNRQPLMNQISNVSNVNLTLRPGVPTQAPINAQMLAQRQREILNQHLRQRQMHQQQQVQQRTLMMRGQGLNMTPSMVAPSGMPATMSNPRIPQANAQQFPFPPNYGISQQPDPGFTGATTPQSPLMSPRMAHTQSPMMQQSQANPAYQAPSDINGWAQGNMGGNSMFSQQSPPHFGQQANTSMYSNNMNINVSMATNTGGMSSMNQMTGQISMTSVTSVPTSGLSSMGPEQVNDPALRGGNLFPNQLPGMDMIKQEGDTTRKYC

[4] = molecular target: Peroxisome proliferator-activated receptor gamma/Nuclear receptor coactivator 3 (Homo sapiens, UniProt P37231); assay: as §1, with “3 (SRC-3)” for “2 (SRC-2)”, “1301 (Confirmation screen.), 1048 (Primary screen.)]” for “1297, 1032 ]”; format: functional
[5] = molecular target: Peroxisome proliferator-activated receptor gamma/Nuclear receptor coactivator 1 (Homo sapiens, UniProt P37231); assay: as §1, with “1 (SRC-1)” for “2 (SRC-2)”, “assays (depositor defined):AID1300, AID1808, AID504735, AID631]” for “assays: 1297, 1032 ]”; format: protein assay
Sequence of Peroxisome proliferator-activated receptor gamma/Nuclear receptor coactivator 1 (P37231 whole entry): as the sequence (P37231 whole entry) above
Sequence of Peroxisome proliferator-activated receptor gamma/Nuclear receptor coactivator 1 (Q15788 whole entry, further chain): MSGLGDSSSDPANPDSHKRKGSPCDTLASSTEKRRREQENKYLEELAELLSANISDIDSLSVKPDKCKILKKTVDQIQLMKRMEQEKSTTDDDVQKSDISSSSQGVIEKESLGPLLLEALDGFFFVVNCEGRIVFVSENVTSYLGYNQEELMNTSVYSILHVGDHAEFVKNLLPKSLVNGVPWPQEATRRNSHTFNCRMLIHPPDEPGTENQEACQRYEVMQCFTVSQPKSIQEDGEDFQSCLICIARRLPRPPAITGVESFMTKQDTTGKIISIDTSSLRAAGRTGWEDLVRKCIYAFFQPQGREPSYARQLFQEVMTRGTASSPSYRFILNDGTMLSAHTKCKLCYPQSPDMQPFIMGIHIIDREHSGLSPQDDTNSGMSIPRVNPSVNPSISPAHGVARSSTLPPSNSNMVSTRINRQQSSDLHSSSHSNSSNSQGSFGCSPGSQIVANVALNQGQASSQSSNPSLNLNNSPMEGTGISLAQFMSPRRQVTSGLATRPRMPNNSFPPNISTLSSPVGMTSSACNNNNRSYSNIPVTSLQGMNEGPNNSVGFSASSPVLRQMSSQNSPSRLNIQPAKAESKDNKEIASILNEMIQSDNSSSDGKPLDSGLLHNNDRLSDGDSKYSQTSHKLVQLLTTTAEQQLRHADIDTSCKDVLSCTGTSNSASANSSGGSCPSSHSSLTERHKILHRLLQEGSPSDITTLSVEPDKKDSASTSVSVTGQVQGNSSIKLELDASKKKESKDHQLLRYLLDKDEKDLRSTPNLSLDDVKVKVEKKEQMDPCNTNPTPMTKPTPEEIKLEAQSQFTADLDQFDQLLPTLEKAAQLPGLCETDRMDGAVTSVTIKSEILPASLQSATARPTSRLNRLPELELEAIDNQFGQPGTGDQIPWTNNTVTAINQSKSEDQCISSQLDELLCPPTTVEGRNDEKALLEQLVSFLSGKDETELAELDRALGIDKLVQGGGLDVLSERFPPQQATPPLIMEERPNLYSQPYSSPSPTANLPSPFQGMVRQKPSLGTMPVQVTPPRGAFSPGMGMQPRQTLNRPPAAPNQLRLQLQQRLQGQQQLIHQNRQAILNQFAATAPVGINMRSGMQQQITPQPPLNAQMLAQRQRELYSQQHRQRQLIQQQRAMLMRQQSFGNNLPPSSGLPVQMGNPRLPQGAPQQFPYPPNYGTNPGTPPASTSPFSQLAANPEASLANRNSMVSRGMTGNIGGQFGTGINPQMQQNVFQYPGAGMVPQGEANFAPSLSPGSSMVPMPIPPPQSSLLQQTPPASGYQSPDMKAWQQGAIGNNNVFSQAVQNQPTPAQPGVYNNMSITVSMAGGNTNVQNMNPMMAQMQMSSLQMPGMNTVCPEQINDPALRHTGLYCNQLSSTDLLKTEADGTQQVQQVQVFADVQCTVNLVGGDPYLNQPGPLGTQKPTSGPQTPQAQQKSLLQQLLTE

[6] = molecular target: Eukaryotic translation initiation factor 4E (Mus musculus, UniProt P63073); assay: eIF4E–eIF4G protein interaction inhibitors, dose response, biochemical, TR-FRET (AID 855); format: functional;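 note: potency for disrupting eIF4E binding to eIF4GI seen as loss of FRET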
Sequence of Eukaryotic translation initiation factor 4E (P63073 whole entry): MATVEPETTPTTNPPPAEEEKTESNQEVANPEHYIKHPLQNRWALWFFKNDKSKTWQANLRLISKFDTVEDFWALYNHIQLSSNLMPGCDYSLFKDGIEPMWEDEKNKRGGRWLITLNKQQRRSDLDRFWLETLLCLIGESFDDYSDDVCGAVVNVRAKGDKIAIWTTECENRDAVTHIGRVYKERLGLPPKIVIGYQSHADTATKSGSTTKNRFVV

[7] = molecular target: T1, Tyrosine-protein phosphatase non-receptor type 7 (Homo sapiens, UniProt P35236); format: functional
T1 sequence (P35236 whole entry): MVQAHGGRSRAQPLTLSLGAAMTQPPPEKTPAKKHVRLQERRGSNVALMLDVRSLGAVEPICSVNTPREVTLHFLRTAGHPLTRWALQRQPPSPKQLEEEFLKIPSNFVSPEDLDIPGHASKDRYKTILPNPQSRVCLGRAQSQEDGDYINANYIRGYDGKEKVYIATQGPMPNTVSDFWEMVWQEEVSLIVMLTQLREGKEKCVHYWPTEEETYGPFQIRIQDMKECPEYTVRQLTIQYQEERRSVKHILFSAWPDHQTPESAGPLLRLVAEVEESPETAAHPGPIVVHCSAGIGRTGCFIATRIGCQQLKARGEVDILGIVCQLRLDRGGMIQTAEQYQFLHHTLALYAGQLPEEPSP

[8] = molecular target: T2, Tyrosine-protein phosphatase non-receptor type 22 (Homo sapiens, UniProt Q9Y2R2); format: functional
T2 sequence (Q9Y2R2 whole entry): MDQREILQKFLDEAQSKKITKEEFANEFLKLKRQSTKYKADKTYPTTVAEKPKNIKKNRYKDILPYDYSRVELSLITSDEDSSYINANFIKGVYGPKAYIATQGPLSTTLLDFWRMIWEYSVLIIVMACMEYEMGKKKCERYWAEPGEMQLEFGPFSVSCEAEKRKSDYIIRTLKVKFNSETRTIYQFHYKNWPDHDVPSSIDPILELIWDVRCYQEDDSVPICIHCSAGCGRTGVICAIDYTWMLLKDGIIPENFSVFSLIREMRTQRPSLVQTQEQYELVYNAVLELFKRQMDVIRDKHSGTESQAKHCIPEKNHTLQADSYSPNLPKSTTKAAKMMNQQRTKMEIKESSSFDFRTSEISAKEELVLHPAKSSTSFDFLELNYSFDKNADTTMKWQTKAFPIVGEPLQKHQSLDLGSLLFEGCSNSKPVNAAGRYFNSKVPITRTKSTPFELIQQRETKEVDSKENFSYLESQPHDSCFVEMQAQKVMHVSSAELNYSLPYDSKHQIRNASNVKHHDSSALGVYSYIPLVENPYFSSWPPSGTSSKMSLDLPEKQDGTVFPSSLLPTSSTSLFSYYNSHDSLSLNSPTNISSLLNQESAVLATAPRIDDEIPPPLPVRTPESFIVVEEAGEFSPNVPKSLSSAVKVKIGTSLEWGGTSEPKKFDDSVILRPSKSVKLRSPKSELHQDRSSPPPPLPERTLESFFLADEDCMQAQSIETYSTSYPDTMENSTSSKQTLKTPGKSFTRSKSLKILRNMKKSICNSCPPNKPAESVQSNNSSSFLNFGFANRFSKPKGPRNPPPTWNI

[9] = molecular target: T2, Tyrosine-protein phosphatase non-receptor type 22; format: functional; remark: listed apart in the source
[10] = molecular target: T3, Alkaline phosphatase, tissue-nonspecific isozyme (Homo sapiens, UniProt P05186)
T3 sequence (P05186 whole entry): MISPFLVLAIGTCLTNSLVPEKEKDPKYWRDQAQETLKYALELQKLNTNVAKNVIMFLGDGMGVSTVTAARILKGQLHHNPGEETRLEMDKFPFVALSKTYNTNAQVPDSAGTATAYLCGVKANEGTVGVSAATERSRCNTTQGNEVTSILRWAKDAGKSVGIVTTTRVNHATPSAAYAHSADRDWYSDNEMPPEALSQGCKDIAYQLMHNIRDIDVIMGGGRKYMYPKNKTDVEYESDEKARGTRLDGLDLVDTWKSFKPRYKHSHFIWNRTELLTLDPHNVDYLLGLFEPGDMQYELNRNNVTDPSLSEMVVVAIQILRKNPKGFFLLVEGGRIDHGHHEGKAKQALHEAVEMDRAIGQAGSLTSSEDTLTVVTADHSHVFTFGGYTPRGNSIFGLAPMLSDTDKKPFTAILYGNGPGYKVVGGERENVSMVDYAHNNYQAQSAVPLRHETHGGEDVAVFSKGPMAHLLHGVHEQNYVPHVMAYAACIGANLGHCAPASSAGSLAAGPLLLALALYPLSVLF

[11] = molecular target: T3, Alkaline phosphatase, tissue-nonspecific isozyme; assay: TNAP enzyme inhibition by screening hits, dose response, selectivity assay for mouse IAP inhibitor project, biochemical, human TNAP, uHTS hits (AID 488906); format: functional
[12] = molecular target: Intestinal-type alkaline phosphatase (Homo sapiens, UniProt P09923); assay: inhibition of human intestinal alkaline phosphatase – biochemical, dose response (AID 488876); format: functional
Streptokinase A = molecular target: T4, Streptokinase A (Streptococcus pyogenes serotype M1, UniProt P10520); assay: S. pyogenes streptokinase expression inhibitors, potency, dose response, plasminogen activation absorbance, OD405 (AID 1914); format: functional, Streptococcus pyogenes M1 GAS;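 note: secreted streptokinase activity via plasminogen activation per viability signal from cell pellet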
T4 sequence (P10520 whole entry): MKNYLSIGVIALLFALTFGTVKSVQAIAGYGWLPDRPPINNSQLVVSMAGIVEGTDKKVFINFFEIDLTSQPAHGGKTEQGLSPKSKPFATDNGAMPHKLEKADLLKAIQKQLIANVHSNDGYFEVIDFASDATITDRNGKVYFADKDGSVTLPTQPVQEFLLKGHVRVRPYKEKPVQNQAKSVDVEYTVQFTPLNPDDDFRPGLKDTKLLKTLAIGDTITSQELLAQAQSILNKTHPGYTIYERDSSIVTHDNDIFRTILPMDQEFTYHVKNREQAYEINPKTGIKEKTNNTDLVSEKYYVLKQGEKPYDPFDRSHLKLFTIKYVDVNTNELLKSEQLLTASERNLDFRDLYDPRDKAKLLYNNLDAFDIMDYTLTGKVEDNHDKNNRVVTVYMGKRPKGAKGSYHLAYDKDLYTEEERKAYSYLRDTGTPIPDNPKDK

[13] = molecular target: Intestinal-type alkaline phosphatase (Mus musculus, UniProt P24822); assay: PubChem AID 488785; format: functional
Sequence of Intestinal-type alkaline phosphatase (Mus musculus, UniProt P24822) (P24822 whole entry): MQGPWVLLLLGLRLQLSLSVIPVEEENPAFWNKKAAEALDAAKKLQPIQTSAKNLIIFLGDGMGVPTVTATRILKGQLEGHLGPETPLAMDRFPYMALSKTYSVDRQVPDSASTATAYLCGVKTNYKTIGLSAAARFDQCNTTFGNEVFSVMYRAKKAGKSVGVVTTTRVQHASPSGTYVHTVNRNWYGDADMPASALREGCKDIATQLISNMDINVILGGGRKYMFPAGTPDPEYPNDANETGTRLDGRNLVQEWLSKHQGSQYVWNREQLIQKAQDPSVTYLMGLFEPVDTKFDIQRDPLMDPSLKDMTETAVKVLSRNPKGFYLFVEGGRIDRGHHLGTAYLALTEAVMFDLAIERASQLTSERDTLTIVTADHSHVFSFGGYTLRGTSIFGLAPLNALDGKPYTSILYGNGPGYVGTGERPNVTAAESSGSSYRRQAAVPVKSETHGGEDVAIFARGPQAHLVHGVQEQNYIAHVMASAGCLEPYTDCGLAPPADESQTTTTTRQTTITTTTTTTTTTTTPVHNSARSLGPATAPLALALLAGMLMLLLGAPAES

SUMO-activating enzyme = SUMO-activating enzyme (Homo sapiens, UniProt Q9UBT2); assay: SUMOylation inhibitor hit validation, confirmation, SUMOylation inhibitor project, biochemical, AlphaScreen (AID 2018); format: functional
Beta-galactosidase = Beta-galactosidase (Escherichia coli, UniProt Q8VNN2); format: functional
Nonstructural protein 1 = Nonstructural protein 1 (Influenza A virus, UniProt Q194T2); format: functional, Influenza A virus (A/California/07/2009(H1N1))
[14] = HeLa cell cytotoxicity, dose response, cytotoxicity control for MgcRacGAP inhibitor project (AID 624300); format: functional
[15] = molecular target: T5, Kappa-type opioid receptor (Homo sapiens, UniProt P41145); format: functional
T5 sequence (P41145 whole entry): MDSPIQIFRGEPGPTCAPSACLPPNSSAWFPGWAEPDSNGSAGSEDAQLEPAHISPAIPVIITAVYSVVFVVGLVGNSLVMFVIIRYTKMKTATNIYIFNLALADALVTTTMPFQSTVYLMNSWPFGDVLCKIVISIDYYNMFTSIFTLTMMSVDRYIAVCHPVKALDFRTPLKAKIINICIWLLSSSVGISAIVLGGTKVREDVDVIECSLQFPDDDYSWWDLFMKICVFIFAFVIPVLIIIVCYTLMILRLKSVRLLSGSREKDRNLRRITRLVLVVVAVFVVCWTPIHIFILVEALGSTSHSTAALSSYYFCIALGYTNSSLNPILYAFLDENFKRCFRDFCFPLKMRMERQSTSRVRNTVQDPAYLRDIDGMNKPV

[16] = molecular target: T5, Kappa-type opioid receptor; format: functional; remark: listed apart in the source
[17] = molecular target: Matrix metalloproteinase-14 (Homo sapiens, UniProt P50281); assay: Dose Response confirmation of uHTS hits for a small molecule inhibitors of MT1-MMP activation in a fluorescence assay set 1.; format: functional
[18] = molecular target: Mitogen-activated protein kinase 10 (Homo sapiens, UniProt P53779); assay: Dose response biochemical screening assay for inhibitors of c-Jun N-Terminal Kinase 3 (JNK3). [Related pubchem assays: 746 ]
[19] = molecular target: T6, Mannose-6-phosphate isomerase (Homo sapiens, UniProt P34949); assay: PMI enzyme inhibitors, confirmation, biochemical, fluorescence intensity (AID 1535)
T6 sequence (P34949 whole entry): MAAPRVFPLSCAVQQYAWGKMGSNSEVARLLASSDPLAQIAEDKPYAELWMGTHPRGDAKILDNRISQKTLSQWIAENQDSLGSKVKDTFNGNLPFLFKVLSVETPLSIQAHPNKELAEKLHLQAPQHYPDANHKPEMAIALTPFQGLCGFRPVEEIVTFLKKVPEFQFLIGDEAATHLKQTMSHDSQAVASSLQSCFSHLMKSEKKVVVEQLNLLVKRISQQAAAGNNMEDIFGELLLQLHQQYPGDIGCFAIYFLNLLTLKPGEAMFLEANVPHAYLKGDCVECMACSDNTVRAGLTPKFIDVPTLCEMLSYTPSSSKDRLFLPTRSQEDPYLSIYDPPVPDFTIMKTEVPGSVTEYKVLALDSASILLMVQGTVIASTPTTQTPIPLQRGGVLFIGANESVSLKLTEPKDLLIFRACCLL

Phosphomannomutase 2 = Phosphomannomutase 2 (Homo sapiens, UniProt O15305); assay: Counter screen SAR assay for PMM2 inhibitors via a fluorescence intensity assay. [Related pubchem assays (depositor defined):AID1545, AID1574]
Cytochrome P450 2D6 = Cytochrome P450 2D6 (Homo sapiens, UniProt P10635);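 note: CYP2D6 member of a cytochrome P450 panel assay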
Cytochrome P450 1A2 = molecular target: T7, Cytochrome P450 1A2 (Homo sapiens, UniProt P05177);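 note: PubChem cytochrome P450 panel assay, CYP1A2 panel member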
T7 sequence (P05177 whole entry): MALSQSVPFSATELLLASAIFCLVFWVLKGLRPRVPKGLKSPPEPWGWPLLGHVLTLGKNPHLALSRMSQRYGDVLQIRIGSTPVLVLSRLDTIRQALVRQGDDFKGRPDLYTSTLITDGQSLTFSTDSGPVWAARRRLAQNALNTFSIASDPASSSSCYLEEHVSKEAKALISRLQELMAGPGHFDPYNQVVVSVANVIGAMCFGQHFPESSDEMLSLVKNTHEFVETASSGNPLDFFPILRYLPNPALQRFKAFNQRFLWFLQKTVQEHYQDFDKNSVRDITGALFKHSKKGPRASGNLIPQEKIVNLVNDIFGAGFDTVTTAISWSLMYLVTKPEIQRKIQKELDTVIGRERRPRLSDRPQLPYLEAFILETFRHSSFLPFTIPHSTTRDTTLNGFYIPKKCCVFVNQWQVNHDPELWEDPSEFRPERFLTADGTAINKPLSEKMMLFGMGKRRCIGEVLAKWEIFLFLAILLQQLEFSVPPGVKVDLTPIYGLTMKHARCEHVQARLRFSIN

INS1 = assay: beta cell apoptosis inhibitors, cytokine rescue, dose response, luminescence, retest (AID 449756); format: functional, cell-based; settings: Rattus norvegicus;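 note: cell death triggered by IL-1 beta plus TNF-alpha plus IFN-gamma mixture; protective hits raise ATP signal compared with cytokine alone wells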
[20] = molecular target: Induced myeloid leukemia cell differentiation protein Mcl-1 (Homo sapiens, UniProt Q07820); format: functional
[21] = molecular target: T6, Mannose-6-phosphate isomerase; assay: human PMI inhibitors, high substrate, primary screen, biochemical, fluorescence intensity, high mannose 6-phosphate (AID 1220)

## O=c1oc2cc(O)c(Cl)cc2c2ccccc12
[1]
  IC50: 1.39 µM (active)
[2]
  IC50: > 39.8 µM (not active)
[3]
  EC50: 3.81 µM (active)
[4]
  EC50: > 79.4 µM (not active)
[5]
  EC50: > 79.4 µM (inactive)

## O=C(CCN1C(=O)C2C3C=CC(C3)C2C1=O)Nc1ccccn1 (stereo not given)
[6]
  IC50: > 64 µM (inactive)

## CC(=O)NS(=O)(=O)c1ccc(NC(=O)C2C3C=CC(C3)C2C(=O)O)cc1 (stereo not given)
[7]
  IC50: > 79.4 µM (inactive)
[8]
  IC50: > 79.4 µM (inactive)
[9]
  IC50: > 79.4 µM (inactive)

## COc1ccc(CNC(=O)c2cc(-c3ccccc3O)[nH]n2)cc1
[7]
  IC50: > 79.4 µM (inactive)
[10]
  EC50: > 100 µM (not active)
[8]
  IC50: > 79.4 µM (inactive)
[9]
  IC50: > 79.4 µM (inactive)

## FC(F)Sc1ccc(NC(=S)NC(c2ccccc2)c2ccccc2)cc1
[11]
  IC50: 41.1 µM (active)
[12]
  IC50: > 100 µM (inactive)
Streptokinase A
  EC50: > 150 µM (not active)
[13]
  IC50: 0.998 µM (active)

## O=C(Nc1cccc2nsnc12)c1ccc(-c2ccc(Br)cc2)o1
SUMO-activating enzyme
  IC50: 9.92 µM (active)

## CC1=NN(c2ccccc2)C(=O)/C1=C/C=C/c1ccc(N(C)C)cc1
Beta-galactosidase
  EC50: 7.93 µM (active)
Nonstructural protein 1
  IC50: 3.14 µM (active)
[14]
  CC50: 95.1 µM (active)
[15]
  pIC50: < 4.49
[16]
  IC50: 8.28 µM (active)
[17]
  IC50: > 80 µM (inactive)

## CCOc1ccc(C(=O)C2=C(O)C(=O)N(c3cc(C)on3)C2c2ccccc2OC)cc1 (stereo not given)
[18]
  IC50: > 93.1 µM (not active)
[3]
  EC50: > 26.5 µM (not active)
[4]
  EC50: > 79.4 µM (not active)
[5]
  EC50: > 79.4 µM (inactive)

## CCc1nnc(/N=c2\ssnc2Cl)s1
[19]
  IC50: 13.1 µM (active)
Phosphomannomutase 2
  IC50: > 100 µM (inactive)

## COc1cccc(CNC(=O)CCNS(=O)(=O)c2ccc3[nH]c(=O)oc3c2)c1
[11]
  IC50: 63.2 µM (active)
[12]
  IC50: > 100 µM (inactive)
[13]
  IC50: 13.9 µM (active)

## Cc1ccc(N2C(=O)c3[nH]nc(C)c3C2c2ccccn2)cc1 (stereo not given)
Cytochrome P450 2D6
  AC50: inconclusive

## O=C(O)[C@@H]1[C@@H](C(=O)O)[C@]23C[C@@]2(C(=O)O)[C@]2(C(=O)O)CCC3=C3CCCC312
Cytochrome P450 1A2
  AC50: 2.51 µM (inconclusive)
Cytochrome P450 2D6
  AC50: inconclusive

## CCN1c2ccccc2N(C)C1(C)c1ccccc1 (stereo not given)
[6]
  IC50: 49.4 µM (inactive)
INS1
  AC50: 2.14 µM (active)
[20]
  IC50: 9.19 µM (active)
[21]
  IC50: 13.7 µM (active)
